The Ki is a measure of affinity in units of concentration, obtained from inhibition or displacement. Low values mean higher affinity, high ones lower affinity.

SMILES strings stand for the structures.

The nature of the test: Evaluated for the inhibition of porcine heart or human L-type Adenosine 5'-monophosphate deaminase (AMPDA).

In turn, `COC(=O)CCCCCCCn1cnc2c1N=CNCC2O` (stereo unspecified) [8-(8-Hydroxy-7,8-dihydro-6H-imidazo[4,5-d][1,3]diazepin-3-yl)-octanoic acid methyl ester] yielded a Ki of 20 µM.

`N#CCCCCCCn1cnc2c1N=CNCC2O` (stereo unspecified) [7-(8-Hydroxy-7,8-dihydro-6H-imidazo[4,5-d][1,3]diazepin-3-yl)-heptanenitrile] had a Ki of 170 µM.

Molecule `CCCCCCCn1cnc2c1N=CNCC2O` (stereo unspecified) [3-Heptyl-3,6,7,8-tetrahydro-imidazo[4,5-d][1,3]diazepin-8-ol] had a Ki of 10 µM.

With `O=C(O)CCCOCn1cnc2c1N=CNCC2O` (stereo unspecified) [Sodium; 4-(8-hydroxy-7,8-dihydro-6H-imidazo[4,5-d][1,3]diazepin-3-ylmethoxy)-butyrate H2O], the Ki was 85 µM.

The molecule `O=C(O)CCCCCCCn1cnc2c1N=CNCC2O` (stereo unspecified) [8-(8-Hydroxy-7,8-dihydro-6H-imidazo[4,5-d][1,3]diazepin-3-yl)-octanoic acid] showed a Ki of 8 µM.

`CCCCCCCCn1cnc2c1N=CNCC2O` (stereo unspecified) [3-Octyl-3,6,7,8-tetrahydro-imidazo[4,5-d][1,3]diazepin-8-ol 0.25H2O] displayed a Ki of 18 µM.

These data come from BindingDB's records for doi:10.1021/jm990447m (Metabasis Therapeutics, 2000).
